Data: ChEMBL document CHEMBL4813977, “Discovery of potent colony-stimulating factor 1 receptor inhibitors by replacement of hinge-binder moieties” (Eur J Med Chem, 2021)
Active and inactive are the calls of the source. No cut-off for these calls is given here.

What was measured:
[1] = biological target: Tyrosine-protein kinase ABL1 (Homo sapiens) (UniProt P00519); assay: Inhibition of human ABL1 at 0.1 uM using EAIYAAPFAKKK as substrate in presence of [gamma-33P]-ATP by radiometric assay relative to control
[2] = biological target: ALK tyrosine kinase receptor (Homo sapiens) (UniProt Q9UM73); assay: Inhibition of human ALK at 0.1 uM using poly[Glu:Tyr] (4:1) as substrate in presence of [gamma-33P]-ATP by radiometric assay relative to control
[3] = biological target: Serine/threonine-protein kinase B-raf (Homo sapiens) (UniProt P15056); assay: Inhibition of human BRAF at 0.1 uM using MEK1 (K97R) as substrate in presence of [gamma-33P]-ATP by radiometric assay relative to control
[4] = biological target: Epidermal growth factor receptor (Homo sapiens) (UniProt P00533); assay: Inhibition of human EGFR at 0.1 uM using poly[Glu:Tyr] (4:1) as substrate in presence of [gamma-33P]-ATP by radiometric assay relative to control
[5] = biological target: Mitogen-activated protein kinase 1 (Homo sapiens) (UniProt P28482); assay: Inhibition of human ERK2 at 0.1 uM using MBP as substrate in presence of [gamma-33P]-ATP by radiometric assay relative to control
Mitogen-activated protein kinase 1 (Homo sapiens), sequence (P28482 whole entry): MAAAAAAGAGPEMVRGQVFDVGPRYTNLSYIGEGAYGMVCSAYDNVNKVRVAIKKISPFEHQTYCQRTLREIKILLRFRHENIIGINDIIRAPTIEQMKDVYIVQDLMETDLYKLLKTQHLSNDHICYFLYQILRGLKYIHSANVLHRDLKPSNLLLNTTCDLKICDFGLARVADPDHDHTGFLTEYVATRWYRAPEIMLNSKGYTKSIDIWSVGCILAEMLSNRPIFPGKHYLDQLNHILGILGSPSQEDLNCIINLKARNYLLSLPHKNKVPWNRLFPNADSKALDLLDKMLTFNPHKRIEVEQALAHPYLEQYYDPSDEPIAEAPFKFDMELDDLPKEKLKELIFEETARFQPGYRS

[6] = biological target: Tyrosine-protein kinase JAK2 (Homo sapiens) (UniProt O60674); assay: Inhibition of human JAK2 at 0.1 uM using poly[Glu:Tyr] (4:1) as substrate in presence of [gamma-33P]-ATP by radiometric assay relative to control
[7] = biological target: T1, Tyrosine-protein kinase JAK3 (Homo sapiens) (UniProt P52333); assay: Inhibition of human JAK3 at 0.1 uM using GGEEEEYFELVKKKK as substrate in presence of [gamma-33P]-ATP by radiometric assay relative to control
T1 sequence (whole entry): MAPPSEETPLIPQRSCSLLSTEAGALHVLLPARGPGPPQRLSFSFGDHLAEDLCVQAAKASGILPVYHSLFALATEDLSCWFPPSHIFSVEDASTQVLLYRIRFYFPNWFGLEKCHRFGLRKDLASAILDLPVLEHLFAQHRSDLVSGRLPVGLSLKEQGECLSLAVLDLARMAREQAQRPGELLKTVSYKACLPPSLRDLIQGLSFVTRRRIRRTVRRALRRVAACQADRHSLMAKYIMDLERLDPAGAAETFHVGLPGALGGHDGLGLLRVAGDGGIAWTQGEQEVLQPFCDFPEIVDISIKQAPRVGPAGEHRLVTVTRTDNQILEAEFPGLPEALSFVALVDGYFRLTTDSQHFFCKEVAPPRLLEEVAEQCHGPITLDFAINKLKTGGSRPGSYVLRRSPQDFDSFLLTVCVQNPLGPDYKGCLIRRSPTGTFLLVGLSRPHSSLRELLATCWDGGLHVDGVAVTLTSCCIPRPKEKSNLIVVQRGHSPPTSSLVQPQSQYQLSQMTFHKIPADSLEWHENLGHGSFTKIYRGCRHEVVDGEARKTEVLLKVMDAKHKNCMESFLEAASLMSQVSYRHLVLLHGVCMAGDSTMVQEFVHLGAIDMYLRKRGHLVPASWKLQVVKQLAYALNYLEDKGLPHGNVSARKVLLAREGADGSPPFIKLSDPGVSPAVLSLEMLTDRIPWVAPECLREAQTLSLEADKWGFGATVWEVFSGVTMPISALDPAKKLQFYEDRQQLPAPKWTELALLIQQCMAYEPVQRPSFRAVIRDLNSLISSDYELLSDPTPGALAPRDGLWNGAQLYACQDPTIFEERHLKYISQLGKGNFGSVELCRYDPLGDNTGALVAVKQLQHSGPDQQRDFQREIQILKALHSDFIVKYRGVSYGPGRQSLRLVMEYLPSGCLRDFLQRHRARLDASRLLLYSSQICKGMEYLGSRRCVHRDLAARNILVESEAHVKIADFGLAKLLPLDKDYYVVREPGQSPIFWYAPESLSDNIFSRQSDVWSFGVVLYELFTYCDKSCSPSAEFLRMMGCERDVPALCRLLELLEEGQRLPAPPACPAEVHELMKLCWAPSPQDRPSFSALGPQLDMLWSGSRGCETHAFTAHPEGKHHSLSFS

[8] = biological target: Tyrosine-protein kinase Lck (Homo sapiens) (UniProt P06239); assay: Inhibition of human LCK at 0.1 uM using poly[Glu:Tyr] (4:1) as substrate jn presence of [gamma-33P]-ATP by radiometric assay relative to control
Tyrosine-protein kinase Lck (Homo sapiens), sequence (P06239 2-509 limits assumed): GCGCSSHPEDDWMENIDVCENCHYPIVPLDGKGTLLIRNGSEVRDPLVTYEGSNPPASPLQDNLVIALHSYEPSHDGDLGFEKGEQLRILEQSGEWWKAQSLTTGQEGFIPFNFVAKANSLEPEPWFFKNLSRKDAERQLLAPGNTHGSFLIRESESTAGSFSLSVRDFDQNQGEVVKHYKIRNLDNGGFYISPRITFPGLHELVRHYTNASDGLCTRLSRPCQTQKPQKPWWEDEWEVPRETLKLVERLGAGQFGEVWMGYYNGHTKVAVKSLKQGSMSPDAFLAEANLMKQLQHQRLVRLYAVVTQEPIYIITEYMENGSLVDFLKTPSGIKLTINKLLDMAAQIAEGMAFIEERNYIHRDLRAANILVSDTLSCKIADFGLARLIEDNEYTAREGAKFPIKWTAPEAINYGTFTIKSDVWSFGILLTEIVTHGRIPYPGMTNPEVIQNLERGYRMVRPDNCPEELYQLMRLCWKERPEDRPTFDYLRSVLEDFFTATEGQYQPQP

[9] = biological target: Tyrosine-protein kinase Lyn (Homo sapiens) (UniProt P07948); assay: Inhibition of human LYN at 0.1 uM using poly[Glu:Tyr] (4:1) as substrate in presence of [gamma-33P]-ATP by radiometric assay relative to control
Tyrosine-protein kinase Lyn (Homo sapiens), sequence (P07948 2-512 limits assumed): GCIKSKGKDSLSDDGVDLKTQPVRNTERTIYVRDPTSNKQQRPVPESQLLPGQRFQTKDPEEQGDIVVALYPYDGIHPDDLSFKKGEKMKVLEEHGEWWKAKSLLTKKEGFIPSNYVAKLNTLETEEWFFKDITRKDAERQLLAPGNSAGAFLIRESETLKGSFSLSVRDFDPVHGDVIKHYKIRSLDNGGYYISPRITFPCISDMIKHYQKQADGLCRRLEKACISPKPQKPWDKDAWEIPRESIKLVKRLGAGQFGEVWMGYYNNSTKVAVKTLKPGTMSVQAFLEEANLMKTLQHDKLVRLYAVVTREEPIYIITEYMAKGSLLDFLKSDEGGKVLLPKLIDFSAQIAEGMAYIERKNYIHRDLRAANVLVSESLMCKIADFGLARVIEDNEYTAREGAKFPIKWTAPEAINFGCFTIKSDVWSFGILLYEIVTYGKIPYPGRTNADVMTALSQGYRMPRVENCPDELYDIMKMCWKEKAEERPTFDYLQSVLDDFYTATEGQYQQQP

[10] = biological target: Dual specificity mitogen-activated protein kinase kinase 1 (Homo sapiens) (UniProt Q02750); assay: Inhibition of human MEK1 at 0.1 uM using ERK2 (K52R) as substrate in presence of [gamma-33P]-ATP by radiometric assay relative to control
Dual specificity mitogen-activated protein kinase kinase 1 (Homo sapiens), sequence (Q02750 whole entry): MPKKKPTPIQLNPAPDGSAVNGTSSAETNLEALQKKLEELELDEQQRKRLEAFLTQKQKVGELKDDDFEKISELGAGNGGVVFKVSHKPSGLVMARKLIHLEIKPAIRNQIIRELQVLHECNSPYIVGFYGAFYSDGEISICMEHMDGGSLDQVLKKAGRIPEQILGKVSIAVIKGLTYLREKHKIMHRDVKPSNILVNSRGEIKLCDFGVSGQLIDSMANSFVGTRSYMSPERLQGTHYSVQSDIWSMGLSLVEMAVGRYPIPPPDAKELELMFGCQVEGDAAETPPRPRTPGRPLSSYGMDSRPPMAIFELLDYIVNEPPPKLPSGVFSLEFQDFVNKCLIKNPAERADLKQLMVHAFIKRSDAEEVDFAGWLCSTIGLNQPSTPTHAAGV

[11] = organism: Homo sapiens; assay: Inhibition of human PKA at 0.1 uM using LCGRTGRRNSI as substrate in presence of [gamma-33P]-ATP by radiometric assay relative to control
[12] = biological target: Non-receptor tyrosine-protein kinase TYK2 (Homo sapiens) (UniProt P29597); assay: Inhibition of human TYK2 at 0.1 uM using KKSRGDYMTMQIG as substrate in presence of [gamma-33P]-ATP by radiometric assay relative to control
[13] = biological target: T2, Macrophage colony-stimulating factor 1 receptor (Mus musculus) (UniProt P09581); assay: Inhibition of CSF1R phosphorylation in mouse RAW 264.7 cells at 10 to 100 nM preincubated for 5 hrs followed by CSF stimulation for 10 mins by Western blot analysis; format: cell-based; settings: RAW264.7, dose 10-100 nM, time 310.0 min
T2 sequence (whole entry): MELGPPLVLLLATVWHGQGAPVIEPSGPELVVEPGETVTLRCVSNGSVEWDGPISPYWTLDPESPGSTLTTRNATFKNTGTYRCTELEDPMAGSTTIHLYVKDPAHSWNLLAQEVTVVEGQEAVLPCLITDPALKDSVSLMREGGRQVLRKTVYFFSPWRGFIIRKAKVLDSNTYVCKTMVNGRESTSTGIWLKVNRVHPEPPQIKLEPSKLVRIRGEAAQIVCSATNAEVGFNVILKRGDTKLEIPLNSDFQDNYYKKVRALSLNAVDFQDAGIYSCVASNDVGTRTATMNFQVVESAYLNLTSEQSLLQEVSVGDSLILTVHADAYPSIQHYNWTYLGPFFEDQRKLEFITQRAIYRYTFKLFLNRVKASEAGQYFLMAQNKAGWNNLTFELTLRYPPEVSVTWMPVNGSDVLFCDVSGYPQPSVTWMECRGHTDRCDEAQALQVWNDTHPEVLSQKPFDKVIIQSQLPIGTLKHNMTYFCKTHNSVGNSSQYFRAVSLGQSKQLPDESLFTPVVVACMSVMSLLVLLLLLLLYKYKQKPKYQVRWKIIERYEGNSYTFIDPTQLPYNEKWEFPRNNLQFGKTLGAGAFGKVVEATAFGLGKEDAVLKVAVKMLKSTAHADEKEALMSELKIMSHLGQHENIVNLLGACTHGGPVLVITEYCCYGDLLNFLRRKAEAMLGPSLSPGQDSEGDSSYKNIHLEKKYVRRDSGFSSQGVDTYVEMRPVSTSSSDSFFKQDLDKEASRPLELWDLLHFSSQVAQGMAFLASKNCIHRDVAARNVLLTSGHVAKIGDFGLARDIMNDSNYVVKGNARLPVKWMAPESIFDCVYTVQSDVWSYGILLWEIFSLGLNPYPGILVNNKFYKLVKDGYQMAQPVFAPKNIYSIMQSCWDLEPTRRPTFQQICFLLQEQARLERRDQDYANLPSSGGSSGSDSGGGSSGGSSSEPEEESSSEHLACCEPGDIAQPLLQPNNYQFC

[14] = biological target: Mast/stem cell growth factor receptor Kit (Homo sapiens) (UniProt P10721); settings: dose 10.0 nM
Mast/stem cell growth factor receptor Kit (Homo sapiens), sequence (P10721 whole entry): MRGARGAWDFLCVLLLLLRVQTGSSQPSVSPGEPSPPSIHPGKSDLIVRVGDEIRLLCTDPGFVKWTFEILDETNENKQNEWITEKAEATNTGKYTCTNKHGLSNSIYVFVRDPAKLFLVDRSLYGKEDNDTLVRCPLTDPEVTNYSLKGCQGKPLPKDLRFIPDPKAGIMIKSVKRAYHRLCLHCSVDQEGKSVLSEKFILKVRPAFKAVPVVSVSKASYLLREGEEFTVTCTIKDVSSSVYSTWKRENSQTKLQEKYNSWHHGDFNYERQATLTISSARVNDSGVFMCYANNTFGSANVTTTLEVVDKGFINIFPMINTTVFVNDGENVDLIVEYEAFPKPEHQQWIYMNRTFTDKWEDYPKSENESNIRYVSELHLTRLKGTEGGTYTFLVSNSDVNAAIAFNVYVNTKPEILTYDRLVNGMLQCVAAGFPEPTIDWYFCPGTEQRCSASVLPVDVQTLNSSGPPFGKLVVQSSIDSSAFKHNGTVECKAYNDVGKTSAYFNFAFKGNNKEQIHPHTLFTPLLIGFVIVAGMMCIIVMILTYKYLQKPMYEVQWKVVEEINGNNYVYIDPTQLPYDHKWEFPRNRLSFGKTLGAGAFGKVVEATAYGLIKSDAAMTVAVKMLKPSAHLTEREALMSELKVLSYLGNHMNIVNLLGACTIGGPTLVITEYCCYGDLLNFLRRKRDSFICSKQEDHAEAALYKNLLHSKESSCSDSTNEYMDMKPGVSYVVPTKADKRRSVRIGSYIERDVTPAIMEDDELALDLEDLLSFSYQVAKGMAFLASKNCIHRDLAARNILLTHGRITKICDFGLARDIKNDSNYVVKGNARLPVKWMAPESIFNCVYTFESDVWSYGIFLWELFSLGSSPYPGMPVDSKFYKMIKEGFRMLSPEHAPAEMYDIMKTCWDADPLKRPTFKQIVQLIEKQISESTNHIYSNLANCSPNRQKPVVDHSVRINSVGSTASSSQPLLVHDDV
Description: Inhibition of human c-KIT at 10 nM using poly[Glu:Tyr] (4:1) as substrate in presence of [gamma-33P]-ATP by radiometric assay relative to control

[15] = biological target: Mast/stem cell growth factor receptor Kit (Homo sapiens) (UniProt P10721); settings: dose 100.0 nM
Description: Inhibition of human c-KIT at 100 nM using poly[Glu:Tyr] (4:1) as substrate in presence of [gamma-33P]-ATP by radiometric assay relative to control

[16] = biological target: Receptor-type tyrosine-protein kinase FLT3 (Homo sapiens) (UniProt P36888); settings: dose 10.0 nM
Receptor-type tyrosine-protein kinase FLT3 (Homo sapiens), sequence (P36888 whole entry): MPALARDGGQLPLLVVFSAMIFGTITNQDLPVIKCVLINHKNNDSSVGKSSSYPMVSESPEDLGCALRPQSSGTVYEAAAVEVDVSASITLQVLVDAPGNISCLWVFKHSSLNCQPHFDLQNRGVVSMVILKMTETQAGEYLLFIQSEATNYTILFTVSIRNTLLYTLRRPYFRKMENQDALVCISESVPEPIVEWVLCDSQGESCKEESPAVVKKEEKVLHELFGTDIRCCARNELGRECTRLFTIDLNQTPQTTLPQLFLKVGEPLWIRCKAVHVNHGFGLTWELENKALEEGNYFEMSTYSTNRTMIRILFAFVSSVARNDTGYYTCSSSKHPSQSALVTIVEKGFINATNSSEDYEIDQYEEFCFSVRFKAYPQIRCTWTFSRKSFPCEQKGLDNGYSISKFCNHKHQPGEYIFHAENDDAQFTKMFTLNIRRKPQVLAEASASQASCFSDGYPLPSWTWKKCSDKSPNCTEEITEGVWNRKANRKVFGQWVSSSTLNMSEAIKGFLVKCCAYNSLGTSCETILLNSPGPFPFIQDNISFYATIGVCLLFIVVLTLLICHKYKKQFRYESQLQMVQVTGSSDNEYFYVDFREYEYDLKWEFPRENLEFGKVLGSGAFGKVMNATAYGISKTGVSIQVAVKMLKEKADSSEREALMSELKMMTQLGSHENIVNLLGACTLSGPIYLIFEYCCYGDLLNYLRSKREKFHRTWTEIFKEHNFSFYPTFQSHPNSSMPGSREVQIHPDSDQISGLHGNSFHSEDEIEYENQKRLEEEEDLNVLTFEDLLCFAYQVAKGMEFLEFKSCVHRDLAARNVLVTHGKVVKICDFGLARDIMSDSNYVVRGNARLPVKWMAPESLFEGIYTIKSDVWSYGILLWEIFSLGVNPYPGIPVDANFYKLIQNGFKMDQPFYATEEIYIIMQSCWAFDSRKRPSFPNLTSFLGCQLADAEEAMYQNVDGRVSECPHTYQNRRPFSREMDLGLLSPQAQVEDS

[17] = biological target: Receptor-type tyrosine-protein kinase FLT3 (Homo sapiens) (UniProt P36888); settings: dose 100.0 nM
[18] = biological target: Macrophage colony-stimulating factor 1 receptor (Homo sapiens) (UniProt P07333); settings: dose 10.0 nM
Macrophage colony-stimulating factor 1 receptor (Homo sapiens), sequence (P07333 whole entry): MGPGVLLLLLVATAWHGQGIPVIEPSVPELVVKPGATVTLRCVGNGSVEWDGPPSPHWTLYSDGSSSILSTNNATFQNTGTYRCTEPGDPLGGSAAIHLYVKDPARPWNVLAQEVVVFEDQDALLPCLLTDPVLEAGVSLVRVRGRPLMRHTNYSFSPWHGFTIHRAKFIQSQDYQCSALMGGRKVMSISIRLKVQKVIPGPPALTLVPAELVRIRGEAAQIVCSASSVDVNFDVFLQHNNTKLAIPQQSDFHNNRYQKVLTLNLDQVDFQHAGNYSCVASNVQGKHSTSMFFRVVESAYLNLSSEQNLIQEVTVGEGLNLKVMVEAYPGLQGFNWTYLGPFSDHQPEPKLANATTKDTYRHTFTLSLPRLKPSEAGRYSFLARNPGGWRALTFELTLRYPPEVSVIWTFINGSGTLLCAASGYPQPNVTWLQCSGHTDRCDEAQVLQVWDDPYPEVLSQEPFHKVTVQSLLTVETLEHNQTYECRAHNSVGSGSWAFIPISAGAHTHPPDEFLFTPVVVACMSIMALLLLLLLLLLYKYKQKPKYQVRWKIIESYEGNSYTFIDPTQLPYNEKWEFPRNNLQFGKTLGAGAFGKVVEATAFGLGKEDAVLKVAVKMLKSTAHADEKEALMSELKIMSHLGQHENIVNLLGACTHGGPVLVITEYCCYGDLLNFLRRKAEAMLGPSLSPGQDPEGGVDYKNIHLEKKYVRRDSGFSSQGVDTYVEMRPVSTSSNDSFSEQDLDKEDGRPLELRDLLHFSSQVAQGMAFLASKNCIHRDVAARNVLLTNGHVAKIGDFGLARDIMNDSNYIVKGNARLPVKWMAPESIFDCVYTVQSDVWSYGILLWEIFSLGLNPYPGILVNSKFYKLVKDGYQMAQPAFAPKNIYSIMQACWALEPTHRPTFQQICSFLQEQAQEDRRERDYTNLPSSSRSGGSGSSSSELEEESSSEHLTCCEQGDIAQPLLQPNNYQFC
Description: Inhibition of human CSF1R at 10 nM using poly[Glu:Tyr] (4:1) as substrate in presence of [gamma-33P]-ATP by radiometric assay relative to control

[19] = biological target: Macrophage colony-stimulating factor 1 receptor (Homo sapiens) (UniProt P07333); settings: dose 100.0 nM
Description: Inhibition of human CSF1R at 100 nM using poly[Glu:Tyr] (4:1) as substrate in presence of [gamma-33P]-ATP by radiometric assay relative to control

inhibition [1]: 79%
inhibition [2]: 41%
inhibition [3]: 39%
inhibition [4]: 60%
inhibition [5]: 0%
inhibition [6]: 0%
inhibition [7]: 0%
inhibition [8]: 75%
inhibition [9]: 93%
inhibition [10]: 30%
inhibition [11]: 42%
inhibition [12]: 16%
inhibition [13]: Active
inhibition [14]: 35%
inhibition [15]: 58%
inhibition [16]: 3%
inhibition [17]: 4%
inhibition [18]: 87%
inhibition [19]: 97%
SMILES: Cc1ccc(NC(=O)c2ccc(C(F)(F)F)nc2)cc1NC(=O)c1cnc2ccccn12
